Measurements: patent US20220081412A1, “QUINOLINYL-PYRAZINE-CARBOXAMIDE COMPOUNDS AND USES THEREOF” (The Regents of the University of Michigan, priority 2018, published 2022)

Test system: NCI60 cell lines
Experiment: NCI60 cell line panel
Assay type: cell-based, human
Description: The Developmental Therapeutics Program (DTP) of NCI has evaluated more than 100,000 pure compounds and more than 34,000 crude extracts against the panel of human tumor cell lines. The resultant data are analyzed using a program called COMPARE, that rank the entire database of tested compounds in the order of the similarity of the responses. […] Thus, the NCI60 databases is highly useful to the cancer research community. Further experiments were conducted that tested some of the active compounds in a panel of NCI60 cell line to relate our compounds with some known inhibitors to have an idea of possible mechanism of action.
In order to understand the selectivity of these compounds in different cancer types, some of them were tested against a panel of 60 cell lines (Table XXXIX).

For CCN(CC)CCCC(C)Nc1cnc(C(=O)Nc2ccc(Cl)c3cccnc23)cn1 (centres unmarked) [J9, N-(5-chloroquinolin-8-yl)-5-((5-(diethylamino)pentan-2-yl)amino)pyrazine-2-carboxamide], the “GIPRCNT: % Growth inhibition” value (Breast Cancer, BT-549) was 80.08%, the “GIPRCNT: % Growth inhibition” value (Breast Cancer, HS 578T) was 51.41% and the “GIPRCNT: % Growth inhibition” value (Breast Cancer, MCF7) was −2.145%. The “GIPRCNT: % Growth inhibition” value (Breast Cancer, MDA-MB-231/ATCC) was −29.6765%, the “GIPRCNT: % Growth inhibition” value (Breast Cancer, MDA-MB-468) was −28.0145% and the “GIPRCNT: % Growth inhibition” value (Breast Cancer, T-47D) was −49.3289%. For the same compound, the “GIPRCNT: % Growth inhibition” value (CNS Cancer, SF-268) was 35.85%, the “GIPRCNT: % Growth inhibition” value (CNS Cancer, SF-295) was 63.03% and the “GIPRCNT: % Growth inhibition” value (CNS Cancer, SF-539) was −73.563%. For the same compound, the “GIPRCNT: % Growth inhibition” value (CNS Cancer, SNB-19) was 49.65%, the “GIPRCNT: % Growth inhibition” value (CNS Cancer, SNB-75) was 41.7% and the “GIPRCNT: % Growth inhibition” value (CNS Cancer, U251) was −35.3044%. For the same compound, the “GIPRCNT: % Growth inhibition” value (Colon Cancer, COLO 205) was −66.6925%, the “GIPRCNT: % Growth inhibition” value (Colon Cancer, HCC-2998) was 32.59% and the “GIPRCNT: % Growth inhibition” value (Colon Cancer, HCT-15) was 3.732%. For the same compound, the “GIPRCNT: % Growth inhibition” value (Colon Cancer, HCT-116) was −52.4351%, the “GIPRCNT: % Growth inhibition” value (Colon Cancer, HT29) was −49.3651% and the “GIPRCNT: % Growth inhibition” value (Colon Cancer, KM12) was 30.3%. The “GIPRCNT: % Growth inhibition” value (Colon Cancer, SW-620) was 0.6189%, the “GIPRCNT: % Growth inhibition” value (Leukemia, CCRF-CEM) was 5.288% and the “GIPRCNT: % Growth inhibition” value (Leukemia, HL-60(TB)) was −63.3005%. The “GIPRCNT: % Growth inhibition” value (Leukemia, K-562) was −45.7589%, the “GIPRCNT: % Growth inhibition” value (Leukemia, MOLT-4) was 2.901% and the “GIPRCNT: % Growth inhibition” value (Leukemia, RPMI-8226) was 2.196%. The “GIPRCNT: % Growth inhibition” value (Leukemia, SR) was 1.416%, the “GIPRCNT: % Growth inhibition” value (Melanoma, LOX IMVI) was −83.8894% and the “GIPRCNT: % Growth inhibition” value (Melanoma, M14) was −73.1499%. The “GIPRCNT: % Growth inhibition” value (Melanoma, MALME-3M) was −71.7698%, the “GIPRCNT: % Growth inhibition” value (Melanoma, MDA-MB-435) was −57.8225% and the “GIPRCNT: % Growth inhibition” value (Melanoma, SK-MEL-2) was 57.84%. For the same compound, the “GIPRCNT: % Growth inhibition” value (Melanoma, SK-MEL-5) was −3.699%, the “GIPRCNT: % Growth inhibition” value (Melanoma, UACC-62) was −52.4398% and the “GIPRCNT: % Growth inhibition” value (Melanoma, UACC-257) was −32.9601%. The “GIPRCNT: % Growth inhibition” value (Non-Small Cell Lung Cancer, A549/ATCC) was 23.43%, the “GIPRCNT: % Growth inhibition” value (Non-Small Cell Lung Cancer, EKVX) was 66.07% and the “GIPRCNT: % Growth inhibition” value (Non-Small Cell Lung Cancer, HOP-62) was 43.04%. The “GIPRCNT: % Growth inhibition” value (Non-Small Cell Lung Cancer, HOP-92) was 38.78%, the “GIPRCNT: % Growth inhibition” value (Non-Small Cell Lung Cancer, NCI-H23) was 80.43% and the “GIPRCNT: % Growth inhibition” value (Non-Small Cell Lung Cancer, NCI-H226) was 39.13%. The “GIPRCNT: % Growth inhibition” value (Non-Small Cell Lung Cancer, NCI-H322M) was 35.3%, the “GIPRCNT: % Growth inhibition” value (Non-Small Cell Lung Cancer, NCI-H460) was 3.469% and the “GIPRCNT: % Growth inhibition” value (Non-Small Cell Lung Cancer, NCI-H522) was 4.415%. The “GIPRCNT: % Growth inhibition” value (Ovarian Cancer, IGROV1) was 44.22%, the “GIPRCNT: % Growth inhibition” value (Ovarian Cancer, NCI/ADR-RES) was 52.19% and the “GIPRCNT: % Growth inhibition” value (Ovarian Cancer, OVCAR-3) was −23.663%. The “GIPRCNT: % Growth inhibition” value (Ovarian Cancer, OVCAR-4) was 51.32%, the “GIPRCNT: % Growth inhibition” value (Ovarian Cancer, OVCAR-5) was 53.28% and the “GIPRCNT: % Growth inhibition” value (Ovarian Cancer, OVCAR-8) was 27.34%. The “GIPRCNT: % Growth inhibition” value (Ovarian Cancer, SK-OV-3) was 79.51%, the “GIPRCNT: % Growth inhibition” value (Prostate Cancer, DU-145) was 53.1% and the “GIPRCNT: % Growth inhibition” value (Prostate Cancer, PC-3) was 39.38%. For the same compound, the “GIPRCNT: % Growth inhibition” value (Renal Cancer, 786-0) was −44.1831%, the “GIPRCNT: % Growth inhibition” value (Renal Cancer, A498) was 53.99% and the “GIPRCNT: % Growth inhibition” value (Renal Cancer, ACHN) was −54.7701%. For the same compound, the “GIPRCNT: % Growth inhibition” value (Renal Cancer, CAKI-1) was 23.14%, the “GIPRCNT: % Growth inhibition” value (Renal Cancer, RXF 393) was 18.75% and the “GIPRCNT: % Growth inhibition” value (Renal Cancer, SN12C) was 31.6819%. For the same compound, the “GIPRCNT: % Growth inhibition” value (Renal Cancer, TK-10) was 57.61% and the “GIPRCNT: % Growth inhibition” value (Renal Cancer, UO-31) was 23.83%.
